# Test results from article PMC11352273, “The Proapoptotic Action of Pyrrolidinedione–Thiazolidinone Hybrids towards Human Breast Carcinoma Cells Does Not Depend on Their Genotype” (Cancers, 2024).
# How the values were obtained:
# [1] = tested on: MDA-MB-231, 4T1, MCF-7, T-47D, and HCC1954 cells; test: MTT assay, summary over breast carcinoma cell lines; assay type: cell-based
# Protocol: The MCF-7 and MDA-MB-231 cells were cultured in the DMEM medium containing 10% of the FBS, HCC1954, T-47D, and 4T1 cells in the RPMI-1640 medium with the addition of 10% of the FBS, and MCF-10A cells in MEGM Mammary Epithelial Cell Growth Medium BulletKit supplemented with penicillin/streptomycin cocktail and 5% of horse serum. The cells were cultured in a […] atmosphere at 5% CO2 and 37 °C. After trypsinization, cells were counted using a Scepter 3.0 handheld automated cell counter (Millipore, Burlington, MA, USA).
# The MTT test was used to assess the metabolic activity of cells treated with the investigated substances following the Sigma-Aldrich manufacturer’s instructions. Briefly, compounds were added in 100 µL of the cultural medium, and cells were incubated for the next 24 and 48 h. Doxorubicin was used as a reference drug. The DMSO was added to dissolve the crystals of formazan. We used the ThermoScientific Evolution 201 UV–VIS spectrophotometer (ThermoFisher Scientific, Waltham, MA, USA) to measure the absorbance of formazan at 570 nm. The initial value of the relative number of cells in control (under 0.1% of the DMSO) was accepted as 100%. We used GraphPad Prism Version 9 to calculate the half-maximal inhibition concentration (IC50) of the studied compounds (the concentration of the drug that reduced cell viability by 50%).
# caspase 8 in MCF-7 cells = test: Caspase-8 activity, FAM-FLICA flow cytometry; assay type: cell-based, human; details: MCF-7, 24 h
# Protocol: (§2) The assay was performed following the manufacturer’s instructions and the previously described methodology [25]. […] The cells were gathered, rinsed twice with chilled PBS, and reconstituted in an Apoptosis Wash Buffer. Then, 10 µL of freshly diluted FLICA solution was added to 290 µL of cell suspension and incubated for an hour at 37 °C. Following two rounds of washing with 2 mL of Apoptosis Wash Buffer, the cells were centrifuged, resuspended in 300 µL of the buffer, and then analyzed [25].
# [2] = tested on: caspase 3/7 in MCF-7 cells; test: Caspase-3/7 activity, FAM-FLICA flow cytometry; details: MCF-7, 24 h
# Protocol: as §2
# caspase 9 in MCF-7 cells = test: Caspase-9 activity, FAM-FLICA flow cytometry; assay type: cell-based, human; details: MCF-7, 24 h
# Protocol: as §2
# [3] = tested on: normal human keratinocytes (HaCaT); set-up: method as in PMID 37579525; details: cited from earlier work
# MCF-7 cells = test: JC-1 mitochondrial membrane potential flow cytometry; assay type: cell-based, human; details: MCF-7, 24 h
# Protocol: (§1) The JC-1 MitoScreen kit (BD Pharmigen, San Diego, CA, USA) and a flow cytometer (BD FACSCanto II) were used to detect the decrease in mitochondrial membrane potential (MMP, ΔΨm) under the action of the studied compounds. […] Following washing, the cells were further suspended in 0.5 mL of buffer with 10 µg/mL JC-1 and incubated for 15 min at room temperature in the dark. Then, cells were washed twice with buffer, resuspended in 300 µL PBS, and analyzed.
# MDA-MB-231 cells = test: as above; assay type: cell-based, human; details: MDA-MB-231, 24 h
# Protocol: as §1
# [4] = tested on: caspase 9 in MDA-MB-231 cells; test: Caspase-9 activity, FAM-FLICA flow cytometry; assay type: cell-based, human; details: MDA-MB-231, 24 h
# Protocol: as §2
compound,measurement,setting,value
"O=C1CC(N2C(=O)C(=CC(Cl)=Cc3ccc([N+](=O)[O-])cc3)SC2=S)C(=O)N1c1ccc(O)cc1 (stereo not drawn) [Les-6287, 1-(4-hydroxyphenyl)-3-[5-[2-chloro-3-(4-nitrophenyl)prop-2-enylidene]-4-oxo-2-thioxothiazolidine-3-yl]pyrrolidine-2,5-dione]",IC50,"[1]; Breast carcinoma cell, 24 and 48 h, all five cancer cell lines and all three hybrids together, read-out: IC50, range over breast carcinoma cell lines",1.37 to 21.9 µM
same,selectivity index (SI = IC50 for MCF-10A/IC50 for human breast tumor cells),[1]; range over cell lines and time points,24.10–47.13
same,cells with active caspase 8,caspase 8 in MCF-7 cells; 1 µM,11.08 ± 1.30%
same,cells with active caspase 8,caspase 8 in MCF-7 cells; 1.5 µM,17.78 ± 5.19%
same,cells with active caspase 3/7,[2]; 1 µM,21.38 ± 1.50%
same,cells with active caspase 3/7,[2]; 1.5 µM,47.08 ± 3.40%
same,cells with active caspase 9,caspase 9 in MCF-7 cells; 1 µM,24.40 ± 0.98%
same,cells with active caspase 9,caspase 9 in MCF-7 cells; 1.5 µM,36.45 ± 1.05%
same,IC50,[3],> 73.6 µM
same,cells with decreased mitochondrial membrane potential (ΔΨm),MCF-7 cells; 1 µM,21.00 ± 1.20%
same,cells with decreased mitochondrial membrane potential (ΔΨm),MCF-7 cells; 1.5 µM,38.85 ± 3.46%
same,cells with decreased mitochondrial membrane potential (ΔΨm),MDA-MB-231 cells; 1 µM,3.75 ± 1.34%
same,cells with decreased mitochondrial membrane potential (ΔΨm),MDA-MB-231 cells; 1.5 µM,17.85 ± 3.46%
same,cells with active caspase 9,[4]; 1 µM,15.30 ± 0.80%
same,cells with active caspase 9,[4]; 1.5 µM,21.88 ± 2.00%
